Like-named read-outs stand apart in the source and are kept apart here.
Columns and labels:
KRAS G12D = KRAS G12D (Homo sapiens, UniProt P01116, G12D); experiment: KRAS G12D GDP-GTP exchange assay (bodipy-GDP for GppNHp, with SOS1); assay type: biochemical; conditions: 2.5 nM bodipy loaded KRAS G12D, 4 hours after GppNHp-SOS1; read-out: G12D_exchange (KRAS_G12D exchange assay IC50)
Procedure: (§1) The inhibitor potency of the exemplified compounds was determined in a fluorescence based guanine nucleotide exchange assay, which measures the exchange of bodipy-GDP (fluorescently labeled GDP) for GppNHp (Non-hydrolyzable GTP analog) to generate the active state of KRAS in the presence of SOS1 (guanine nucleotide exchange factor). Inhibitors were serially diluted in DMSO and a volume of 0.1 μL was transferred to the wells of a black low volume 384-well plate. 5 μL/well volume of bodipy-loaded KRAS G12C diluted to 5 nM in assay buffer (25 mM Hepes pH 7.5, 50 mM NaCl, 10 mM MgCl2 and 0.01% Brij-35) was added to the plate and pre-incubated with inhibitor for 2 hours at ambient temperature. Appropriate controls (enzyme with no inhibitor or with a G12C inhibitor (AMG-510)) were included on the plate. The exchange was initiated by the addition of a 5 μL/well volume containing 1 mM GppNHp and 300 nM SOS1 in assay buffer. The 10 μL/well reaction concentration of the bodipy-loaded KRAS G12C, GppNHp, and SOS1 were 2.5 nM, 500 uM, and 150 nM, respectively. The reaction plates were incubated at ambient temperature for 2 hours, a time estimated for complete GDP-GTP exchange in the absence of inhibitor. For the KRAS G12D and G12V mutants, similar guanine nucleotide exchange assays were used with 2.5 nM as final concentration for the bodipy loaded KRAS proteins and with 4 hours and 3 hours incubation after adding GppNHp-SOS1 mixture for G12D and G12V respectively. A cyclic peptide described to selectively bind G12D mutant (Sakamoto et al., BBRC 484.3 (2017), 605-611) or internal compounds with confirmed binding were used as positive controls in the assay plates. Fluorescence intensities were measured on a PheraStar plate reader instrument (BMG Labtech) with excitation at 485 nm and emission at 520 nm.
(§2) Either GraphPad prism or XLfit was used to analyze the data. The IC50 values were derived by fitting the data to a four parameter logistic equation producing a sigmoidal dose-response curve with a variable Hill coefficient. Prism equation: Y=Bottom+(Top−Bottom)/(1+10^((Log IC50−X)*Hill slope)); XLfit equation: Y=(A+((B−A)/(1+((X/C)^D)))) where X is the logarithm of inhibitor concentration and Y is the response.

KRAS G12V = KRAS G12V (Homo sapiens, UniProt P01116, G12V); experiment: KRAS G12V GDP-GTP exchange assay (bodipy-GDP for GppNHp, with SOS1); assay type: biochemical; conditions: 2.5 nM bodipy loaded KRAS G12V, 3 hours after GppNHp-SOS1; read-out: G12V_exchange (KRAS_G12V exchange assay IC50)
Chain of KRAS G12V (P01116 1-188 isoform P01116-2 G12V): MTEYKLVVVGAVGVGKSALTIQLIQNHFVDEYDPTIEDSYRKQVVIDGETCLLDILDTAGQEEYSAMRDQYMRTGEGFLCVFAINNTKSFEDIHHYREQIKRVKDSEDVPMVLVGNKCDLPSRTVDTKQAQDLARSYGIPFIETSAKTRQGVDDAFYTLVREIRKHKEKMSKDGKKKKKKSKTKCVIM
Procedure: as §1, §2

KRAS G12C = KRAS G12C (Homo sapiens, UniProt P01116, G12C); experiment: KRAS G12C GDP-GTP exchange assay (bodipy-GDP for GppNHp, with SOS1); assay type: biochemical; conditions: 2.5 nM bodipy-loaded KRAS G12C, 2 hours pre-incubation with inhibitor, 2 hours after GppNHp-SOS1; read-out: G12C_exchange (KRAS_G12C exchange assay IC50)
Chain of KRAS G12C (P01116 1-188 isoform P01116-2 G12C): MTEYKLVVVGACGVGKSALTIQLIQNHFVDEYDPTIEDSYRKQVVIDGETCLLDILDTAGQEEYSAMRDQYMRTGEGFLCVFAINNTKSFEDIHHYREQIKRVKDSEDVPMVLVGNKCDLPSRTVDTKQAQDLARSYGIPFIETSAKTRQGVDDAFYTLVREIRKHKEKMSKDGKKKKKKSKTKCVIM
Method in brief: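 Fluorescence nucleotide-exchange assay: bodipy-GDP-loaded KRAS (2.5 nM final) pre-incubated with inhibitor 2 h at ambient temperature, then 500 µM GppNHp plus 150 nM SOS1 added in pH 7.5 Hepes/MgCl2 buffer. Exchange read at ex 485/em 520 nm after 2 h (G12C), 4 h (G12D) or 3 h (G12V). IC50 from four-parameter logistic fit.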

[1] = system: MIA PaCa-2 (KRAS G12C) cells; experiment: KRAS_G12C cellular pERK HTRF assay; assay type: cell-based, human; conditions: phospho-ERK1/2 HTRF, 4 hours incubation, read-out: G12C_pERK (KRAS_G12C pERK assay IC50)
Method in brief: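 MIA PaCa-2 (G12C) or G12D lines (A427, HPAF-II) in RPMI/10% FBS, treated with compound for 4 h (G12C) or 2 h (G12D) at 37 °C after overnight plating. Lysed, phospho-ERK1/2 detected by HTRF (665/620 nm). IC50 from percent inhibition versus log concentration.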

Chain of KRAS G12D (P01116 1-188 isoform P01116-2 G12D): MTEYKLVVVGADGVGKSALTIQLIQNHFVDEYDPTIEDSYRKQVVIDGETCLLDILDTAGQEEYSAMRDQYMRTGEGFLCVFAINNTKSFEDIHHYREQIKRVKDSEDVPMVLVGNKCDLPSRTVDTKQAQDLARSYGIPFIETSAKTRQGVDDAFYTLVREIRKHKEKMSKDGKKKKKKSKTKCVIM

## CN1CCC[C@H]1COc1nc2c(F)c(-c3cc(O)cc4ccccc34)c(CCC#N)cc2c2c1c(-c1ccccc1)cn2C1C2CNC1C2 (stereo partly drawn) [Example 34, 3-(1-(2-azabicyclo[2.1.1]hexan-5-yl)-6-fluoro-7-(3-hydroxynaphthalen-1-yl)-4-(((S)-1-methylpyrrolidin-2-yl)methoxy)-3-phenyl-1H-pyrrolo[3,2-c]quinolin-8-yl)propanenitrile]
KRAS G12D
  IC50: 100 to 1000 nM
KRAS G12V
  IC50: 1000 to 5000 nM

## CN1CCC[C@H]1COc1nc2c(F)c(-c3cc(O)cc4ccccc34)c(CCC#N)cc2c2c1c(CO)cn2C1C2CNC1C2 (stereo partly drawn) [Example 46, 3-(1-(2-Azabicyclo[2.1.1]hexan-5-yl)-6-fluoro-3-(hydroxymethyl)-7-(3-hydroxynaphthalen-1-yl)-4-(((S)-1-methylpyrrolidin-2-yl)methoxy)-1H-pyrrolo[3,2-c]quinolin-8-yl)propanenitrile]
KRAS G12D
  IC50: ≤ 100 nM
KRAS G12V
  IC50: 100 to 1000 nM

## CN1CCC[C@H]1COc1nc2c(F)c(-c3cccc4ccc(F)cc34)c(CCC#N)cc2c2c1cc(CCC(=O)N1CCC1)n2C1C2CNC1C2 (stereo partly drawn) [Example 50, 3-(2-(3-(azetidin-1-yl)-3-oxopropyl)-1-(2-azabicyclo[2.1.1]hexan-5-yl)-6-fluoro-7-(7-fluoronaphthalen-1-yl)-4-(((S)-1-methylpyrrolidin-2-yl)methoxy)-1H-pyrrolo[3,2-c]quinolin-8-yl)propanenitrile]
KRAS G12D
  IC50: ≤ 100 nM
KRAS G12V
  IC50: ≤ 100 nM

## C=CC(=O)N1CC[C@H](n2ncc3c(OC[C@@H]4CCCN4C)nc4c(F)c(-c5cccc(C)c5C(F)(F)F)c(Cl)cc4c32)C[C@H]1CC#N [Example 28, 2-((2S,4S)-1-acryloyl-4-(8-chloro-6-fluoro-7-(3-methyl-2-(trifluoromethyl)phenyl)-4-(((S)-1-methylpyrrolidin-2-yl)methoxy)-1H-pyrazolo[4,3-c]quinolin-1-yl)piperidin-2-yl)acetonitrile]
KRAS G12C
  IC50: ≤ 100 nM
[1]; Homo sapiens, MIA PaCa-2
  IC50: ≤ 100 nM

## CC#CC(=O)N1CC[C@H](n2ncc3c(OC[C@@H]4CCCN4C)nc4c(F)c(-c5c(C)c(Cl)cc6[nH]ncc56)c(Cl)cc4c32)C[C@H]1CC#N (single isomer, unassigned) [Example 18a]
KRAS G12C
  IC50: ≤ 100 nM
[1]; Homo sapiens, MIA PaCa-2
  IC50: ≤ 100 nM

## CC#CC(=O)N1CC[C@H](n2ncc3c(O[C@@H](C)[C@@H]4CCCN4C)nc4c(F)c(-c5c(C)c(C)cc6[nH]ncc56)c(C)cc4c32)C[C@H]1CC#N (single isomer, unassigned) [Example 69b]
KRAS G12C
  IC50: ≤ 100 nM
[1]; Homo sapiens, MIA PaCa-2
  IC50: ≤ 100 nM

## COC/C=C/C(=O)N1CC[C@H](n2ncc3c(OC[C@@H]4CCCN4C)nc4c(F)c(-c5cccc6cccc(C#N)c56)c(C)cc4c32)C[C@H]1CC#N (single isomer, unassigned) [Example 54a]
KRAS G12C
  IC50: ≤ 100 nM
[1]; Homo sapiens, MIA PaCa-2
  IC50: ≤ 100 nM

## COC/C=C/C(=O)N1CC[C@H](n2ncc3c(O[C@@H](C)[C@@H]4CCCN4C)nc4c(F)c(-c5cccc6cccc(C#N)c56)c(C)cc4c32)C[C@H]1CC#N (single isomer, unassigned) [Example 57b]
KRAS G12C
  IC50: ≤ 100 nM
[1]; Homo sapiens, MIA PaCa-2
  IC50: ≤ 100 nM

## C=CC(=O)N1CC[C@H](n2ncc3c(N4CC(N(C)C)C4)nc4c(F)c(-c5cccc(C)c5Cl)c(Cl)cc4c32)C[C@H]1CC#N [Example 23, 2-((2S,4S)-1-acryloyl-4-(8-chloro-7-(2-chloro-3-methylphenyl)-4-(3-(dimethylamino)azetidin-1-yl)-6-fluoro-1H-pyrazolo[4,3-c]quinolin-1-yl)piperidin-2-yl)acetonitrile]
KRAS G12C
  IC50: ≤ 100 nM
[1]; Homo sapiens, MIA PaCa-2
  IC50: ≤ 100 nM

## C=C(F)C(=O)N1CC[C@H](n2ncc3c(OC[C@@H]4CCCN4C)nc4c(F)c(-c5cccc6cccc(C#N)c56)c(C)cc4c32)C[C@H]1CC#N (single isomer, unassigned) [Example 52a]
KRAS G12C
  IC50: ≤ 100 nM
[1]; Homo sapiens, MIA PaCa-2
  IC50: ≤ 100 nM

## C=C(F)C(=O)N1CC[C@H](n2ncc3c(N4CC(C)(N(C)C)C4)nc4c(F)c(-c5c(C)c(C)cc6[nH]ncc56)c(Cl)cc4c32)C[C@H]1CC#N (single isomer, unassigned) [Example 81a]
KRAS G12C
  IC50: ≤ 100 nM
[1]; Homo sapiens, MIA PaCa-2
  IC50: ≤ 100 nM

## Cc1c(Cl)cc2[nH]ncc2c1-c1c(Cl)cc2c(nc(N3CC(C)(N(C)C)C3)c3cnn([C@H]4CCN(C(=O)/C=C/C(F)F)[C@H](CC#N)C4)c32)c1F (single isomer, unassigned) [Example 14a]
KRAS G12C
  IC50: ≤ 100 nM
[1]; Homo sapiens, MIA PaCa-2
  IC50: ≤ 100 nM

## COC/C=C/C(=O)N1CC[C@H](n2ncc3c(N4CC(C)(N(C)C)C4)nc4c(F)c(-c5c(C)c(C)cc6[nH]ncc56)c(Cl)cc4c32)C[C@H]1CC#N (single isomer, unassigned) [Example 83a]
KRAS G12C
  IC50: ≤ 100 nM
[1]; Homo sapiens, MIA PaCa-2
  IC50: ≤ 100 nM

## C=CC(=O)N1CC[C@H](n2ncc3c(N4CC(N(C)C)C4)nc4c(F)c(-c5cncc6ccccc56)c(Cl)cc4c32)C[C@H]1CC#N [Example 22, 2-((2S,4S)-1-acryloyl-4-(8-chloro-4-(3-(dimethylamino)azetidin-1-yl)-6-fluoro-7-(isoquinolin-4-yl)-1H-pyrazolo[4,3-c]quinolin-1-yl)piperidin-2-yl)acetonitrile]
KRAS G12C
  IC50: ≤ 100 nM
[1]; Homo sapiens, MIA PaCa-2
  IC50: ≤ 100 nM

## Cc1cc2[nH]ncc2c(-c2c(C)cc3c(nc(O[C@@H](C)[C@@H]4CCCN4C)c4cnn([C@H]5CCN(C(=O)/C=C/CN(C)C)[C@H](CC#N)C5)c43)c2F)c1C (single isomer, unassigned) [Example 71b]
KRAS G12C
  IC50: ≤ 100 nM
[1]; Homo sapiens, MIA PaCa-2
  IC50: ≤ 100 nM

## COC/C=C/C(=O)N1CC[C@H](n2ncc3c(OC[C@@H]4CCCN4C)nc4c(F)c(-c5c(C)c(Cl)cc6[nH]ncc56)c(Cl)cc4c32)C[C@H]1CC#N (single isomer, unassigned) [Example 19a]
KRAS G12C
  IC50: ≤ 100 nM
[1]; Homo sapiens, MIA PaCa-2
  IC50: ≤ 100 nM

## CC#CC(=O)N1CC[C@H](n2ncc3c(N4CC(C)(N(C)C)C4)nc4c(F)c(-c5cccc6cccc(C#N)c56)c(C)cc4c32)C[C@H]1CC#N (single isomer, unassigned) [Example 60a]
KRAS G12C
  IC50: ≤ 100 nM
[1]; Homo sapiens, MIA PaCa-2
  IC50: ≤ 100 nM

## Cc1c(Cl)cc2[nH]ncc2c1-c1c(Cl)cc2c(nc(N3CC(C)(N(C)C)C3)c3cnn([C@H]4CCN(C(=O)/C=C/CN(C)C)[C@H](CC#N)C4)c32)c1F (single isomer, unassigned) [Example 10a]
KRAS G12C
  IC50: ≤ 100 nM
[1]; Homo sapiens, MIA PaCa-2
  IC50: ≤ 100 nM

## Cc1c(Cl)cc2[nH]ncc2c1-c1c(Cl)cc2c(nc(OC[C@@H]3CCCN3C)c3cnn([C@H]4CCN(C(=O)/C=C/CN(C)C)[C@H](CC#N)C4)c32)c1F (single isomer, unassigned) [Example 17a]
KRAS G12C
  IC50: ≤ 100 nM
[1]; Homo sapiens, MIA PaCa-2
  IC50: ≤ 100 nM

## CC#CC(=O)N1CC[C@H](n2ncc3c(N4CC(N(C)C)C4)nc4c(F)c(-c5cccc(Cl)c5Cl)c(Cl)cc4c32)C[C@H]1CC#N (single isomer, unassigned) [Example 26b]
KRAS G12C
  IC50: ≤ 100 nM
[1]
  IC50: ≤ 100 nM

## C=C(F)C(=O)N1CC[C@H](n2ncc3c(N4CC(C)(N(C)C)C4)nc4c(F)c(-c5cccc6cccc(C#N)c56)c(C)cc4c32)C[C@H]1CC#N (single isomer, unassigned) [Example 59a]
KRAS G12C
  IC50: ≤ 100 nM
[1]; Homo sapiens, MIA PaCa-2
  IC50: ≤ 100 nM

— US20210355121A1, “FUSED TRICYCLIC KRAS INHIBITORS” (Incyte Corporation, priority 2020, published 2021)
